Reference: PMC9254247, “Dual-sensitive antibacterial peptide nanoparticles prevent dental caries” (Theranostics, 2022)

Test system: clinically isolated S.mutans strains
Assay: Bactericidal activity against clinically isolated S. mutans strains (CFU counting)
Assay type: cell-based, Streptococcus mutans
Conditions: for bacterial viability (survival): 10 min, CFU
Procedure: Table S3 The bactericidal activity of pHly -1 NPs and CHX against clinically isolated S.mutans strains a
“a” represents the bacterial viability after the pHly-1 NPs and CHX treatment for 10 min. The killing activity of pHly -1 NPs and CHX was measured against clinically isolated S.mutans strains by counting the CFU of alive bacteria. […]
Minimal inhibition concentration (MIC) determination . S.mutans UA159 (ATCC 700610) and 20 clinical S.mutans strains were used. S.mutans UA159 was purchased from Shanghai Biofeng Biotechnology Co., LTD. These bacteria grown in brain heart infusion broth (BHI, Beijing Land Bridge, China) at 37 °C under anaerobic conditions. […]
Bacterial killing by pHly-1 NPs at various pHs. pHly-1 NPs were diluted in BHI medium of different pHs (pH 4.5, 5.5, 6.8, and 7.0) to obtain specific diluted solutions (final volume of 200 μ L). 1 μ L bacterial suspension (2×10^8 CFU/mL) in the logarithmic phase was added into corresponding diluted solutions and mixed individually. After being incubated for 10 min at 37 °C under anaerobic conditions, aliquots of 20 μL bacterial suspension were plated on BHI agar plates. The bacterial killing activity of pHly -1 NPs was measured by counting the CFU of alive bacteria with agar plating after incubation under anaerobic conditions for 48 h at 37 °C. The results were determined and presented of three repeats. Bacterial survival(%) = CFU of bacteria treated with drugs/CFU of bacteria treated with negative control× 100% 2. […]
For SEM, S. mutans UA159 was treated by the same way to SYTO 9/PI double staining asay and then harvested, washed, and then fixed in 2.5 % glutaraldehyde for 3 h. After dehydration by serial concentrations of ethanol solutions (10%, 25%, 50%, 75%, 95%, and 100%) and lyophiliz ation overnight, the lyophilized samples were coated with goldand then photographed by SEM.

`[H]/N=C(\N/C(=N/[H])NCCCCCCNC(=N)NC(=N)Nc1ccc(Cl)cc1)Nc1ccc(Cl)cc1` [CHX, chlorhexidine] was tested, and the viability (55 μM, in 4 strains) was “over 90%”, the “bacterial viability (survival)” value (strain CS-1, pH 4.5, 22 μM) was 95.2% and the “bacterial viability (survival)” value (strain CS-1, pH 4.5, 55 μM) was 54%. The “bacterial viability (survival)” value (strain CS-1, pH 5.5, 22 μM) was 91.6%, the “bacterial viability (survival)” value (strain CS-1, pH 5.5, 55 μM) was 31.3% and the “bacterial viability (survival)” value (strain CS-2, pH 4.5, 22 μM) was 96.4%. For the same compound, the “bacterial viability (survival)” value (strain CS-2, pH 4.5, 55 μM) was 69.1%, the “bacterial viability (survival)” value (strain CS-2, pH 5.5, 22 μM) was 86.9% and the “bacterial viability (survival)” value (strain CS-2, pH 5.5, 55 μM) was 76.6%. For the same compound, the “bacterial viability (survival)” value (strain CS-4, pH 4.5, 22 μM) was 100%, the “bacterial viability (survival)” value (strain CS-4, pH 4.5, 55 μM) was 66.4% and the “bacterial viability (survival)” value (strain CS-4, pH 5.5, 22 μM) was 100%. The “bacterial viability (survival)” value (strain CS-4, pH 5.5, 55 μM) was 74.6%, the “bacterial viability (survival)” value (strain CS-5, pH 4.5, 22 μM) was 100% and the “bacterial viability (survival)” value (strain CS-5, pH 4.5, 55 μM) was 67.7%. For the same compound, the “bacterial viability (survival)” value (strain CS-5, pH 5.5, 22 μM) was 89.6%, the “bacterial viability (survival)” value (strain CS-5, pH 5.5, 55 μM) was 54.9% and the “bacterial viability (survival)” value (strain CS-6, pH 4.5, 22 μM) was 106%. For the same compound, the “bacterial viability (survival)” value (strain CS-6, pH 4.5, 55 μM) was 67.0%, the “bacterial viability (survival)” value (strain CS-6, pH 5.5, 22 μM) was 95.6% and the “bacterial viability (survival)” value (strain CS-6, pH 5.5, 55 μM) was 88.8%. For the same compound, the “bacterial viability (survival)” value (strain CS-7, pH 4.5, 22 μM) was 97.0%, the “bacterial viability (survival)” value (strain CS-7, pH 4.5, 55 μM) was 54% and the “bacterial viability (survival)” value (strain CS-7, pH 5.5, 22 μM) was 91.6%. The “bacterial viability (survival)” value (strain CS-7, pH 5.5, 55 μM) was 67.7%, the “bacterial viability (survival)” value (strain CS-8, pH 4.5, 22 μM) was 79.5% and the “bacterial viability (survival)” value (strain CS-8, pH 4.5, 55 μM) was 49.4%. For the same compound, the “bacterial viability (survival)” value (strain CS-8, pH 5.5, 22 μM) was 81.8%, the “bacterial viability (survival)” value (strain CS-8, pH 5.5, 55 μM) was 61.8% and the “bacterial viability (survival)” value (strain CS-9, pH 4.5, 22 μM) was 83.9%. The “bacterial viability (survival)” value (strain CS-9, pH 4.5, 55 μM) was 77%, the “bacterial viability (survival)” value (strain CS-9, pH 5.5, 22 μM) was 73.8% and the “bacterial viability (survival)” value (strain CS-9, pH 5.5, 55 μM) was 46.9%. The “bacterial viability (survival)” value (strain CS-10, pH 4.5, 22 μM) was 83.6%, the “bacterial viability (survival)” value (strain CS-10, pH 4.5, 55 μM) was 52.3% and the “bacterial viability (survival)” value (strain CS-10, pH 5.5, 22 μM) was 68.9%. The “bacterial viability (survival)” value (strain CS-10, pH 5.5, 55 μM) was 68.2%, the “bacterial viability (survival)” value (strain CS-11, pH 4.5, 22 μM) was 100% and the “bacterial viability (survival)” value (strain CS-11, pH 4.5, 55 μM) was 50.7%. The “bacterial viability (survival)” value (strain CS-11, pH 5.5, 22 μM) was 140%, the “bacterial viability (survival)” value (strain CS-11, pH 5.5, 55 μM) was 59.4% and the “bacterial viability (survival)” value (strain CS-12, pH 4.5, 22 μM) was 98.6%. The “bacterial viability (survival)” value (strain CS-12, pH 4.5, 55 μM) was 91.1%, the “bacterial viability (survival)” value (strain CS-12, pH 5.5, 22 μM) was 110% and the “bacterial viability (survival)” value (strain CS-12, pH 5.5, 55 μM) was 74.2%. The “bacterial viability (survival)” value (strain CS-13, pH 4.5, 22 μM) was 93.5%, the “bacterial viability (survival)” value (strain CS-13, pH 4.5, 55 μM) was 87.4% and the “bacterial viability (survival)” value (strain CS-13, pH 5.5, 22 μM) was 74.0%. The “bacterial viability (survival)” value (strain CS-13, pH 5.5, 55 μM) was 65.8%, the “bacterial viability (survival)” value (strain CS-14, pH 4.5, 22 μM) was 100% and the “bacterial viability (survival)” value (strain CS-14, pH 4.5, 55 μM) was 51.9%. The “bacterial viability (survival)” value (strain CS-14, pH 5.5, 22 μM) was 74.2%, the “bacterial viability (survival)” value (strain CS-14, pH 5.5, 55 μM) was 71.6% and the “bacterial viability (survival)” value (strain CS-16, pH 4.5, 22 μM) was 95.9%. For the same compound, the “bacterial viability (survival)” value (strain CS-16, pH 4.5, 55 μM) was 10.9%, the “bacterial viability (survival)” value (strain CS-16, pH 5.5, 22 μM) was 87.9% and the “bacterial viability (survival)” value (strain CS-16, pH 5.5, 55 μM) was 20%. For the same compound, the “bacterial viability (survival)” value (strain CS-17, pH 4.5, 22 μM) was 108.2%, the “bacterial viability (survival)” value (strain CS-17, pH 4.5, 55 μM) was 92.3% and the “bacterial viability (survival)” value (strain CS-17, pH 5.5, 22 μM) was 102.0%. The “bacterial viability (survival)” value (strain CS-17, pH 5.5, 55 μM) was 48.3%, the “bacterial viability (survival)” value (strain CS-18, pH 4.5, 22 μM) was 68.2% and the “bacterial viability (survival)” value (strain CS-18, pH 4.5, 55 μM) was 71.5%. The “bacterial viability (survival)” value (strain CS-18, pH 5.5, 22 μM) was 114.8%, the “bacterial viability (survival)” value (strain CS-18, pH 5.5, 55 μM) was 92.2% and the “bacterial viability (survival)” value (strain CS-19, pH 4.5, 22 μM) was 93.0%. For the same compound, the “bacterial viability (survival)” value (strain CS-19, pH 4.5, 55 μM) was 101%, the “bacterial viability (survival)” value (strain CS-19, pH 5.5, 22 μM) was 96.9% and the “bacterial viability (survival)” value (strain CS-19, pH 5.5, 55 μM) was 87.9%. For the same compound, the “bacterial viability (survival)” value (strain CS-20, pH 4.5, 22 μM) was 91.0%, the “bacterial viability (survival)” value (strain CS-20, pH 4.5, 55 μM) was 100% and the “bacterial viability (survival)” value (strain CS-20, pH 5.5, 22 μM) was 103.9%. The “bacterial viability (survival)” value (strain CS-20, pH 5.5, 55 μM) was 88.9%.
